In patent EP0610943A1, “Pyridinium derivatives useful as PAF antagonists” (J. URIACH & CIA. S.A., priority 1993, dated 1994):

Columns and labels:
PAF-induced hypotension = experiment: Inhibition of the hypotensive effect induced by PAF in normotensive rats; format: in vivo, Male Sprague Dawley rats; details: i.v. through the femoral vein 3 min before PAF injection (0.5 mcg/kg, i.v.); anaesthetized rats
Procedure: Inhibition of the hypotensive effect induced by PAF in normotensive rats.
Male Sprague Dawley rats (b.w. 180-220 g) anaesthetized with sodium pentobarbital (50 mg/kg, i.p. 1mL/100 g) were used. In order to measure the arterial pressure, a polyethylene catheter was introduced into the carotid artery. The arterial pressure was recorded with the help of a transducer coupled to a R611 Beckman polygraph. The test compounds were administered through the femoral vein 3 min before PAF injection (0.5 mcg/kg, i.v.). Control animals received only the vehicle. […]

[1] = test system: Platelet aggregation induced by PAF; experiment: Inhibition of platelet aggregation induced by PAF (Born nephelometric technique, platelet-rich plasma); format: cell-based, male New Zealand rabbits; details: rabbit platelet-rich plasma, platelet count 3x10⁵/mm³; PAF (C₁₈) 15 nM; read-out: IC₅₀
Procedure: Inhibition of platelet aggregation induced by PAF
Platelet-rich plasma (PRP) was prepared by centrifuging the blood at 250xg for 10 min at 4°C and then it was diluted with platelet-poor plasma (PPP) obtained by further centrifuging at 3000xg for 10 min. The platelet count was adjusted to 3x10⁵/mm³. […] The activities of the inhibitors were expressed as the IC₅₀ value, that is to say the concentration of the drug needed to inhibit platelet aggregation by 50%.

[2] = test system: ear oedema induced by arachidonic acid; experiment: Rodent ear oedema induced by arachidonic acid; format: in vivo, Swiss, male mice; details: topical in acetone 30 min before irritant; 10% arachidonic acid, 2 mg/ear; read at 1 h; mouse ear
Procedure: (§1) Rodent ear oedema induced by application of several irritant agents
(§2) Groups of 8-10 Swiss, male mice, 6-8 weeks old, were used in the experiments. Animals had free access to food and water. Irritant dermatitis was elicited by painting both faces of the left ear of the mouse with 20 µL (10 µL each face) of the inflammatory agents. Concentrations (w/v) of the irritants were: 10% arachidonic acid and 0.01% TPA (12-O-tetradecanoylphorbol 13-acetate), both dissolved in acetone. Total applied doses were 2 and 0.002 mg/ear, respectively. Treatment was effected by application of a total of 20 µL of the test compound dissolved in acetone to both faces of the left ear of the mouse 30 min before the application of the irritant agent. Control animals received only the vehicle. At 1 h (arachidonic acid) and 6 h (TPA) after administration of the irritant, animals were killed by cervical dislocation. An 8 mm diameter punch biopsy was performed on each ear, the right (untreated) ear being the control for each animal. The swelling induced by the irritant was quantified as the percentage increase in the weight of the left ear biopsy over that of the right ear biopsy.

[3] = test system: ear oedema induced by TPA (12-O-tetradecanoylphorbol 13-acetate); experiment: Rodent ear oedema induced by TPA; format: in vivo, Swiss, male mice; details: topical in acetone 30 min before irritant; 0.01% TPA, 0.002 mg/ear; read at 6 h; mouse ear
Procedure: as §1
as §2, with “This test was performed according to the method described by Young et al. (Pharmacological Methods in the Control of Inflammation., ed. Chang, J.Y. & Lewis, A.J. pp 215-231. New York: Alan R. Liss, 1989). Groups” for “Groups”, “biopsy. Percentage inhibition of oedema was calculated according to the following formula: [formula] Activity of the inhibitors was expressed as the ID₅₀ value, i.e. the amount of compound by weight of animal (dose) required to inhibit the increase in weight by 50%, with respect to control animals.” for “biopsy.”

Compound | IC50 [1] [nM] | ID₅₀ (PAF-induced hypotension) [mg/kg] | ID₅₀ Arachidonic acid [2] | ID₅₀ TPA [3]
CCC[n+]1cc(Br)cc(C(=O)N(CCNC(=O)OCC)c2ccccc2)c1.[I-] [Compound 1, 5-Bromo-3-[N-(2₋ethoxycarbonylamino)ethyl-N-phenyl]carbamoyl-1-propylpyridinium iodide] | 18 | 0.046 | 0.31 mg/ear | 0.31 mg/ear
CCC[n+]1cc(Br)cc(C(=O)N(CCN2CCOC2=O)c2ccccc2)c1.[I-] [Compound 5, 5-Bromo-3-[N-[2-(2-oxo-1,3-oxazolidin-3-yl)ethyl-N-phenyl]carbamoyl]-1-propylpyridinium iodide] | 36 | 0.16 | ≧1 mg/ear | 0.68 mg/ear
CCC[n+]1cc(Br)cc(C(=O)N(CCOC(=O)NCCI)c2ccccc2)c1.[I-] [Compound 7] | 2.1 | <0.025 | 0.50 mg/ear | 0.20 mg/ear
CCC[n+]1cc(Br)cc(C(=O)N(CCNC(=O)OCC(F)(F)C(F)(F)F)c2ccccc2)c1.[I-] [Compound 8, 5-Bromo-3-[N-[2-(2,2,3,3,3-pentafluoropropoxy)carbonylamino]ethyl-N-phenyl]carbamoyl-1-propylpyridinium iodide] | 4.2 | – | ≈1 mg/ear | 0.3-1 mg/ear
CCC[n+]1cc(Br)cc(C(=O)N(CCNC(=O)c2ccc(C(F)(F)F)cc2)c2ccccc2)c1.[I-] [Compound 10] | 4.5 | – | ≈1 mg/ear | 0.3-1 mg/ear
CCC[n+]1cc(Br)cc(C(=O)N(CCNC(=O)c2ccc(C(F)(F)F)cc2)c2ccccc2)c1.[Cl-] [Compound 11, 5-Bromo-3-[N-[2-[(4-trifluoromethyl)phenyl]carbonylaminolethyl-N-phenyl]carbamoyl-1-propylpyridinium chloride] | 23 | – | – | –
CCC[n+]1cc(Br)cc(C(=O)N(CCNC(=O)c2ccc(C(F)(F)F)cc2)c2ccccc2)c1.[Cl-] [Compound 11] | – | 0.022 | – | –
Cl.O=C(Cc1ccc(OCc2ccc3ccccc3n2)cc1)NCCN(C(=O)c1cncc(Br)c1)c1ccccc1 [Compound 13, 5-Bromo-3-[N-[2-[p-(2-quinolylmethoxy)phenyl]acetylamino]ethyl-N-phenyl]carbamoylpyridinium chloride] | 52 | 0.0065 | >0.3 mg/ear | >0.1 mg/ear
Cl.O=C(NCCN(C(=O)c1cncc(Br)c1)c1ccccc1)c1cccc(OCc2ccc3ccccc3n2)c1 [Compound 15, 5-Bromo-3-[N-[2-[3-(2-quinolylmethoxy)phenyl]carbonylamino]ethyl-N-phenyl]carbamoylpyridinium chloride] | – | – | – | ≦0.1 mg/ear
Cl.O=C(NCCN(C(=O)c1cncc(Br)c1)c1ccccc1)c1ccc(OCc2ccc3ccccc3n2)cc1 [Compound 17, 5-Bromo-3-[N-[2-[p-(2-quinolylmethoxy)phenyl]carbonylamino]ethyl-N-phenyl]carbamoylpyridinium chloride] | – | – | – | <0.1 mg/ear

Second part, led by results:

IC50 [1] [nM] | Compound | ID₅₀ (PAF-induced hypotension) [mg/kg] | ID₅₀ Arachidonic acid [2] | ID₅₀ TPA [3]
4.2 | 5-Bromo-3-[N-(2-ethoxycarbonylamino)ethyl-N-phenyl]carbamoyl-1-propylpyridinium chloride [Compound 2] | 0.039 | – | –
16 | 5-Bromo-3-[N-[2-(2-iodoethoxy)carbonylamino]ethyl-N-phenyl]carbamoyl-1-propylpyridinium chloride [Compound 4] | – | – | –
10 | 5-Bromo-3-[N-[2-(2-iodoethoxy)carbonylamino]ethyl-N-phenyl]carbamoyl₋1-propylpyridinium iodide [Compound 3] | – | 0.3-1 mg/ear | 0.76 mg/ear
3.8 | 5-Bromo-3-[N-[2-(4-fluorobenzyloxy)carbonylamino]ethyl-N-phenyl]carbamoyl-1-propylpyridinium iodide [Compound 9] | 0.079 | ≈1 mg/ear | 0.3-1 mg/ear
